# Measurements from patent US6709676B2, “Extended release oral dosage composition” (Schering Corporation, priority 1999, dated 2004).
# Tested on: allergic bronchospasm and cough
# Assay: in vivo studies of allergic bronchospasm and cough
compound,measurement,value
"Clc1ccc2c(c1)CCc1cccnc1C2=C1CCNCC1 [desloratadine, Desloratadine]",effect on allergic bronchospasm and cough,inhibitory effect
